Common to all, as to type: cell-based
The target of assay [1] is T1, GPR40 (Homo sapiens, UniProt O14842).
T1 construct: gene FFAR1; plasmid of untold source and species, transiently cotransfected with SRE-Luc or CRE-Luc in CHO-K1 cells
Kind of assay: SRE-luciferase (Gq) reporter assay, CHO cells. Particulars: 24 h, 37 °C.

For assay [2], the target named is T1, GPR40. The experiment in a line: SRE-luciferase (Gq) reporter assay, CHO cells. For orientation: Reporter assays use an easily measured gene product as a stand-in for the process of interest.
Assay [3] has as its target T1, GPR40. Kind of assay: SRE-luciferase (Gq) reporter assay, CHO cells, dose-response curve. Particulars: agonist.

Each structure is given as a SMILES string.

In general, Emax refers to the size of the effect at its maximum, as opposed to the concentration needed. The EC50 is the concentration giving half of the maximal effect. Higher therefore signals weaker potency.

T1 sequence (O14842 whole entry): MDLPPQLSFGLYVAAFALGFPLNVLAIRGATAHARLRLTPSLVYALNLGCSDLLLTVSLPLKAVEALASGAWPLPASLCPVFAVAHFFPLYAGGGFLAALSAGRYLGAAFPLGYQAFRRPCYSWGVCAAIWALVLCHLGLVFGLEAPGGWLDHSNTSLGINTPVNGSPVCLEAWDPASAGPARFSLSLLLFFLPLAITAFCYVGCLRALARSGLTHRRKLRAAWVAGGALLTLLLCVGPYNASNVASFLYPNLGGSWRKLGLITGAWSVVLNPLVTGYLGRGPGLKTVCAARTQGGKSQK

`CC(/C=C/C=C(\C)C(=O)O[C@@H]1O[C@H](CO[C@@H]2O[C@H](CO)[C@@H](O)[C@H](O)[C@H]2O)[C@@H](O)[C@H](O)[C@H]1O)=C\C=C\C=C(C)\C=C\C=C(/C)C(=O)O[C@@H]1O[C@H](CO[C@@H]2O[C@H](CO)[C@@H](O)[C@H](O)[C@H]2O)[C@@H](O)[C@H](O)[C@H]1O` [crocin]: the maximum response (Emax) at GPR40 [1] is reported as 6.00%.
In the case of `CC(/C=C/C=C(\C)C(=O)O)=C\C=C\C=C(C)\C=C\C=C(/C)C(=O)O` [crocetin], the response at GPR40 [2] was half-maximal at 2910 ± 320 nM (EC50).
Consider `CCCCC/C=C\C/C=C\CCCCCCCC(=O)O` [linoleic acid], for which, at GPR40 [3], the “SRE-luciferase (Gq) reporter assay, CHO cells, dose-response curve” value is listed as “increasing crocetin concentrations on dose−response curves of LA”.

The values above are taken from publication PMC10675071, “Identification of Crocetin as a Dual Agonist of GPR40 and GPR120 Responsible for the Antidiabetic Effect of Saffron” (Nutrients, 2023).
